{
  "source": "patent US20260193180A1",
  "about": "“AUTOPHAGY INDUCING COMPOUNDS AND USES THEREOF” (SAMSARA THERAPEUTICS INC., priority 2022, published 2026)",
  "key": {"[1]": {"system": "Human osteosarcoma U2OS cells", "assay": "Acidic vesicle formation (lysosome/autolysosome staining, LysoView 633 / LysoTracker Deep Red), stimulation of autophagy", "assay_type": "cell-based", "conditions": "24 hours", "summary_of_the_method": "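U2OS cells treated with compound for 24 h, then stained 45 min at 37° C with 1× LysoView 633 or 50 nM LysoTracker Deep Red plus Hoechst nuclei. Live-cell fluorescence images (Cy5/DAPI) scored for acidic vesicle formation relative to DMSO control.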"}, "[2]": {"system": "dopaminergic Tyrosine hydroxylase (TH)-positive neurons", "assay": "Cellular model of Parkinson's disease, MPP+ injury of primary mesencephalic culture", "assay_type": "cell-based, rat", "conditions": "0.5 μM, MPP+ 4 μM for 48 h", "protocol": "This model (supplied by Neuro-Sys SAS, France) is based on a primary culture of dopaminergic Tyrosine hydroxylase (TH)-positive neurons injured with the dopaminergic neurons-specific toxin (DA-toxin) 1-methyl-4-phenyl-1,2,3,6 tetrahydropyridine (MPTP) (Dauer and Przedborski, 2003). Any substances reducing DA-toxin neurotoxicity may be useful as a new therapeutic agent for the treatment or prevention of PD.\nPrimary culture of mesencephalic neurons: Rat dopaminergic neurons were cultured as described by Visanji et al., 2008 and Callizot et al., 2019. Briefly, pregnant female rat (Wistar) of 15 days of gestation were killed using a deep anesthesia with CO2 chamber and a cervical dislocation. The midbrains obtained from 15-day-old rat embryos (Janvier, France) were dissected under a microscope. The embryonic midbrains will be removed and placed in ice-cold medium of Leibovitz (L15) containing 2% of Penicillin-Streptomycin (PS) and 1% of bovine serum albumin (BSA). The ventral portion of the mesencephalic flexure, a region of the developing brain rich in dopaminergic neurons, was used for the cell preparations.\nThe midbrains were dissociated by trypsinisation for 20 min at 37° C. (solution at a final concentration of 0.05% trypsin and 0.02% EDTA). The reaction was stopped by the addition of Dulbecco's modified Eagle's medium (DMEM) containing DNAase I grade II (0.5 mg/mL) and 10% of foetal calf serum (FCS). Cells were then mechanically dissociated by 3 passages through a 10 ml pipette. Cells were then centrifuged at 180×g for 10 min at +4° C. on a layer of BSA (3.5%) in L15 medium. The supernatant was discarded and the cell pellets re-suspended in a defined culture medium consisting of Neurobasal supplemented with B27 (2%), L-glutamine (2 mM) and 2% of PS solution and 10 ng/mL of Brain-derived neurotrophic factor (BDNF) and 1 ng/mL of Glial-Derived Neurotrophic Factor (GDNF). Viable cells were counted in a Neubauer cytometer using the trypan blue exclusion test. […]"}, "[3]": {"assay": "Bioavailability / brain exposure in CD1 mice", "assay_type": "in vivo", "conditions": "dose of 30 mg/kg", "protocol": "The compounds have good properties for oral dosing and readily cross the blood brain barrier. For example, in CD1 mice, Compound 9 has a maximum concentration in brain plasma of 5067 ng/ml after 30 minutes at a dose of 30 mg/kg. Compound 12 has a maximum concentration in brain plasma of 5853 ng/ml after 8 hours at a dose of 30 mg/kg."}},
  "data": [
    {"molecule": "CCOc1ccc(Cl)cc1CN1CC[C@@H](CN)C1.Cl", "note": "[Compound 12, (S)-(1-(5-chloro-2-ethoxybenzyl)pyrrolidin-3-yl)methanamine hydrochloride]", "values": [
      {"measurement": "activation at 0.8 µM", "setting": "[1]; 0.8 μM, read-out: Activity (percentage increase in acidic vesicle formation over the DMSO-treated control)", "result": "30 to 50", "unit": "%"},
      {"measurement": "activation at 10 µM", "setting": "[1]; 10 μM, read-out: increase in acidic vesicle formation over the DMSO-treated control", "result": "≥ 25", "unit": "%"},
      {"measurement": "neurite network of TH positive neurons", "setting": "[2]", "result": "protected"},
      {"measurement": "neuronal survival (total number of TH positive neurons)", "setting": "[2]", "result": "improved"},
      {"measurement": "α-Synuclein aggregation in dopaminergic neurons", "setting": "[2]", "result": "reduced"},
      {"measurement": "maximum concentration in brain plasma", "setting": "[3]", "result": 5853, "unit": "ng/mL"},
      {"measurement": "time of maximum concentration in brain plasma", "setting": "[3]", "result": 8, "unit": "h"}
    ]}
  ]
}
